Laboratory results as given in PubChem BioAssay AID2060904 (Molecular Pharmacology Branch, DTP, NCI, 2025).

System: 349418-098-R-PDC complex spheroid viability
Test: Anticancer human tumor 349418-098-R-PDC patient-derived lung adenocarcinoma cell line growth inhibition [RAS]
Conditions: for IC50: curve of first compound; for viability, T/C: stronger effect = lower value
Procedure, shortened: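 Multi-cell-type spheroids: tumor cells plus HUVEC endothelial cells and mesenchymal stem cells. RAS-pathway inhibitors were combined with targeted agents, each dosed in half-log steps down from clinical Cmax, or from 10 microM when Cmax was unknown.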

[1] = second compound 0.000949 µM, first compound 0.0316 µM
[2] = second compound 0.000949 µM, first compound 0.1 µM
[3] = second compound 0.000949 µM, first compound 0.316 µM
[4] = second compound 0.000949 µM, first compound 1 µM
[5] = second compound 0.003 µM, first compound 0.0316 µM
[6] = second compound 0.003 µM, first compound 0.1 µM
[7] = second compound 0.003 µM, first compound 0.316 µM
[8] = second compound 0.003 µM, first compound 1 µM
[9] = second compound 0.00949 µM, first compound 0.0316 µM
[10] = second compound 0.00949 µM, first compound 0.1 µM
[11] = second compound 0.00949 µM, first compound 0.316 µM
[12] = second compound 0.00949 µM, first compound 1 µM
[13] = second compound 0.03 µM, first compound 0.0316 µM
[14] = second compound 0.03 µM, first compound 0.1 µM
[15] = second compound 0.03 µM, first compound 0.316 µM
[16] = second compound 0.03 µM, first compound 1 µM
[17] = second compound 0.0949 µM, first compound 0.0316 µM
[18] = second compound 0.0949 µM, first compound 0.1 µM
[19] = second compound 0.0949 µM, first compound 0.316 µM
[20] = second compound 0.0949 µM, first compound 1 µM
[21] = second compound 0.3 µM, first compound 0.0316 µM
[22] = second compound 0.3 µM, first compound 0.1 µM
[23] = second compound 0.3 µM, first compound 0.316 µM
[24] = second compound 0.3 µM, first compound 1 µM
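Also: spheroids exposed to compound for seven days before viability readout.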

Question: Which IC50 (second compound 0.000949 µM) does the source give for `CC(=O)OC12COC1CC(O)C1(C)C(=O)C(O)C3=C(C)C(OC(=O)C(O)C(NC(=O)OC(C)(C)C)c4ccccc4)CC(O)(C(OC(=O)c4ccccc4)C21)C3(C)C` (stereo unspecified) + CCn1c(-c2cccnc2C(C)OC)c2c3cc(ccc31)N1CCOC(CC(NC(=O)C(C(C)C)N(C)C(=O)C3(F)CCN(C(=O)C#CC(C)(C)N(C)C)CC3)C(=O)N3CCCC(N3)C(=O)OCC(C)(C)C2)C1 here?
Answer: < 31.6 nM

Question: And the IC50 (second compound 0.003 µM)?
Answer: < 31.6 nM

Question: What about the IC50 (second compound 0.00949 µM) of the same compound?
Answer: < 31.6 nM

Question: And the IC50 (second compound 0.03 µM)?
Answer: < 31.6 nM

Question: And the IC50 (second compound 0.0949 µM)?
Answer: < 31.6 nM

Question: What about the IC50 (second compound 0.3 µM) of the same compound?
Answer: < 31.6 nM

Question: And the viability, T/C [1]?
Answer: 13.4%

Question: And the viability, T/C [2]?
Answer: 13%

Question: And the viability, T/C [3]?
Answer: 15.4%

Question: And the viability, T/C [4]?
Answer: 16.4%

Question: And the viability, T/C (second compound 0.000949 µM, first compound 3.16 µM)?
Answer: 15.6%

Question: What about the viability, T/C (second compound 0.000949 µM, first compound 10 µM) of the same compound?
Answer: 17.3%

Question: And the viability, T/C [5]?
Answer: 13.8%

Question: What about the viability, T/C [6] of the same compound?
Answer: 13.9%

Question: What about the viability, T/C [7] of the same compound?
Answer: 10.9%

Question: And the viability, T/C [8]?
Answer: 13.8%

Question: What about the viability, T/C (second compound 0.003 µM, first compound 3.16 µM) of the same compound?
Answer: 16.8%

Question: What about the viability, T/C (second compound 0.003 µM, first compound 10 µM) of the same compound?
Answer: 16.9%

Question: And the viability, T/C [9]?
Answer: 13.2%

Question: And the viability, T/C [10]?
Answer: 13.6%

Question: And the viability, T/C [11]?
Answer: 10.2%

Question: What about the viability, T/C [12] of the same compound?
Answer: 13.5%

Question: What about the viability, T/C (second compound 0.00949 µM, first compound 3.16 µM) of the same compound?
Answer: 17.4%

Question: And the viability, T/C (second compound 0.00949 µM, first compound 10 µM)?
Answer: 15.9%

Question: And the viability, T/C [13]?
Answer: 12.6%

Question: What about the viability, T/C [14] of the same compound?
Answer: 13.3%

Question: And the viability, T/C [15]?
Answer: 16.2%

Question: And the viability, T/C [16]?
Answer: 16.2%

Question: What about the viability, T/C (second compound 0.03 µM, first compound 3.16 µM) of the same compound?
Answer: 17.4%

Question: What about the viability, T/C (second compound 0.03 µM, first compound 10 µM) of the same compound?
Answer: 12.6%

Question: And the viability, T/C [17]?
Answer: 12.2%

Question: What about the viability, T/C [18] of the same compound?
Answer: 13.3%

Question: And the viability, T/C [19]?
Answer: 15.7%

Question: And the viability, T/C [20]?
Answer: 15.9%

Question: And the viability, T/C (second compound 0.0949 µM, first compound 3.16 µM)?
Answer: 16.9%

Question: And the viability, T/C (second compound 0.0949 µM, first compound 10 µM)?
Answer: 16.8%

Question: What about the viability, T/C [21] of the same compound?
Answer: 13%

Question: And the viability, T/C [22]?
Answer: 13.2%

Question: What about the viability, T/C [23] of the same compound?
Answer: 14.7%

Question: What about the viability, T/C [24] of the same compound?
Answer: 15%

Question: What about the viability, T/C (second compound 0.3 µM, first compound 3.16 µM) of the same compound?
Answer: 19.1%

Question: And the viability, T/C (second compound 0.3 µM, first compound 10 µM)?
Answer: 21.1%

Question: Which results are given for `CCc1c2c(nc3ccc(O)cc13)-c1cc3c(c(=O)n1C2)COC(=O)[C@]3(O)CC` + CCn1c(-c2cccnc2C(C)OC)c2c3cc(ccc31)N1CCOC(CC(NC(=O)C(C(C)C)N(C)C(=O)C3(F)CCN(C(=O)C#CC(C)(C)N(C)C)CC3)C(=O)N3CCCC(N3)C(=O)OCC(C)(C)C2)C1?
Answer: IC50 (second compound 0.000949 µM): 2.21 nM; IC50 (second compound 0.003 µM): 2.57 nM; IC50 (second compound 0.00949 µM): 2.86 nM; IC50 (second compound 0.03 µM): 2.62 nM; IC50 (second compound 0.0949 µM): 2.42 nM; IC50 (second compound 0.3 µM): 1.43 nM; viability, T/C (second compound 0.000949 µM, first compound 0.000949 µM): 77.2%; viability, T/C (second compound 0.000949 µM, first compound 0.003 µM): 40.1%; viability, T/C (second compound 0.000949 µM, first compound 0.00949 µM): 10.9%; viability, T/C (second compound 0.000949 µM, first compound 0.03 µM): 4.7%; viability, T/C (second compound 0.000949 µM, first compound 0.0949 µM): 2.54%; viability, T/C (second compound 0.000949 µM, first compound 0.3 µM): 2.43%; viability, T/C (second compound 0.003 µM, first compound 0.000949 µM): 99.5%; viability, T/C (second compound 0.003 µM, first compound 0.003 µM): 42.5%; viability, T/C (second compound 0.003 µM, first compound 0.00949 µM): 13.3%; viability, T/C (second compound 0.003 µM, first compound 0.03 µM): 6.22%; viability, T/C (second compound 0.003 µM, first compound 0.0949 µM): 2.99%; viability, T/C (second compound 0.003 µM, first compound 0.3 µM): 2.08%; viability, T/C (second compound 0.00949 µM, first compound 0.000949 µM): 98.7%; viability, T/C (second compound 0.00949 µM, first compound 0.003 µM): 47.9%; viability, T/C (second compound 0.00949 µM, first compound 0.00949 µM): 15.6%; viability, T/C (second compound 0.00949 µM, first compound 0.03 µM): 5.26%; viability, T/C (second compound 0.00949 µM, first compound 0.0949 µM): 2.91%; viability, T/C (second compound 0.00949 µM, first compound 0.3 µM): 2.15%; viability, T/C (second compound 0.03 µM, first compound 0.000949 µM): 86.4%; viability, T/C (second compound 0.03 µM, first compound 0.003 µM): 45.1%; viability, T/C (second compound 0.03 µM, first compound 0.00949 µM): 14.1%; viability, T/C (second compound 0.03 µM, first compound 0.03 µM): 5.2%; viability, T/C (second compound 0.03 µM, first compound 0.0949 µM): 2.57%; viability, T/C (second compound 0.03 µM, first compound 0.3 µM): 2.19%; viability, T/C (second compound 0.0949 µM, first compound 0.000949 µM): 94.7%; viability, T/C (second compound 0.0949 µM, first compound 0.003 µM): 39.9%; viability, T/C (second compound 0.0949 µM, first compound 0.00949 µM): 11.3%; viability, T/C (second compound 0.0949 µM, first compound 0.03 µM): 5.33%; viability, T/C (second compound 0.0949 µM, first compound 0.0949 µM): 2.49%; viability, T/C (second compound 0.0949 µM, first compound 0.3 µM): 1.47%; viability, T/C (second compound 0.3 µM, first compound 0.000949 µM): 65.3%; viability, T/C (second compound 0.3 µM, first compound 0.003 µM): 22.4%; viability, T/C (second compound 0.3 µM, first compound 0.00949 µM): 7.03%; viability, T/C (second compound 0.3 µM, first compound 0.03 µM): 4.31%; viability, T/C (second compound 0.3 µM, first compound 0.0949 µM): 2.68%; viability, T/C (second compound 0.3 µM, first compound 0.3 µM): 1.47%

Question: How did the IC50 (second compound 0.000949 µM) turn out when `Nc1ccn(C2OC(CO)C(O)C2(F)F)c(=O)n1` (stereo unspecified) + CCn1c(-c2cccnc2C(C)OC)c2c3cc(ccc31)N1CCOC(CC(NC(=O)C(C(C)C)N(C)C(=O)C3(F)CCN(C(=O)C#CC(C)(C)N(C)C)CC3)C(=O)N3CCCC(N3)C(=O)OCC(C)(C)C2)C1 was run?
Answer: < 3.16 nM

Question: And the IC50 (second compound 0.003 µM)?
Answer: < 3.16 nM

Question: What about the IC50 (second compound 0.00949 µM) of the same compound?
Answer: < 3.16 nM

Question: What about the IC50 (second compound 0.03 µM) of the same compound?
Answer: < 3.16 nM

Question: What about the IC50 (second compound 0.0949 µM) of the same compound?
Answer: < 3.16 nM

Question: What about the IC50 (second compound 0.3 µM) of the same compound?
Answer: < 3.16 nM

Question: What about the viability, T/C (second compound 0.000949 µM, first compound 0.00316 µM) of the same compound?
Answer: 23.6%

Question: And the viability, T/C (second compound 0.000949 µM, first compound 0.01 µM)?
Answer: 7.06%

Question: And the viability, T/C [1]?
Answer: 5.46%

Question: And the viability, T/C [2]?
Answer: 4.18%

Question: And the viability, T/C [3]?
Answer: 4.47%

Question: What about the viability, T/C [4] of the same compound?
Answer: 3.97%

Question: What about the viability, T/C (second compound 0.003 µM, first compound 0.00316 µM) of the same compound?
Answer: 22%

Question: And the viability, T/C (second compound 0.003 µM, first compound 0.01 µM)?
Answer: 6.17%

Question: What about the viability, T/C [5] of the same compound?
Answer: 5.46%

Question: What about the viability, T/C [6] of the same compound?
Answer: 5.26%

Question: And the viability, T/C [7]?
Answer: 4.96%

Question: And the viability, T/C [8]?
Answer: 4.2%

Question: What about the viability, T/C (second compound 0.00949 µM, first compound 0.00316 µM) of the same compound?
Answer: 20.5%

Question: And the viability, T/C (second compound 0.00949 µM, first compound 0.01 µM)?
Answer: 8.01%

Question: And the viability, T/C [9]?
Answer: 5.62%

Question: And the viability, T/C [10]?
Answer: 4.89%

Question: And the viability, T/C [11]?
Answer: 6.38%

Question: And the viability, T/C [12]?
Answer: 3.73%

Question: What about the viability, T/C (second compound 0.03 µM, first compound 0.00316 µM) of the same compound?
Answer: 19.7%

Question: And the viability, T/C (second compound 0.03 µM, first compound 0.01 µM)?
Answer: 6.08%

Question: What about the viability, T/C [13] of the same compound?
Answer: 4.75%

Question: And the viability, T/C [14]?
Answer: 5.13%

Question: What about the viability, T/C [15] of the same compound?
Answer: 5.14%

Question: What about the viability, T/C [16] of the same compound?
Answer: 3.58%

Question: And the viability, T/C (second compound 0.0949 µM, first compound 0.00316 µM)?
Answer: 19.9%

Question: What about the viability, T/C (second compound 0.0949 µM, first compound 0.01 µM) of the same compound?
Answer: 7.64%

Question: What about the viability, T/C [17] of the same compound?
Answer: 4.68%

Question: What about the viability, T/C [18] of the same compound?
Answer: 4.96%

Question: And the viability, T/C [19]?
Answer: 5.01%

Question: What about the viability, T/C [20] of the same compound?
Answer: 4.01%

Question: What about the viability, T/C (second compound 0.3 µM, first compound 0.00316 µM) of the same compound?
Answer: 16.6%

Question: What about the viability, T/C (second compound 0.3 µM, first compound 0.01 µM) of the same compound?
Answer: 6.52%

Question: What about the viability, T/C [21] of the same compound?
Answer: 4.44%

Question: And the viability, T/C [22]?
Answer: 4.51%

Question: And the viability, T/C [23]?
Answer: 5.17%

Question: What about the viability, T/C [24] of the same compound?
Answer: 3.99%
